According to patent publication US20090318375A1, “Crystalline Azithromycin L-Malate Monohydrate and Pharmaceutical Composition Containing Same” (Hanmi Pharm Co., Ltd, priority 2003, published 2009):
Where two headings read alike, the source gives them in different places.

How the values were obtained:
[1] = Hygroscopicity of acid addition salts of azithromycin after storage; type: physicochemical; conditions: after 24 hours storage at 40° C. and 75% relative humidity
[2] = Moisture uptake of malate anhydrates exposed at 40° C. and 75% relative humidity; type: physicochemical; conditions: exposed at 40° C. and 75% relative humidity for 10 hours
Water-solubility test = type: physicochemical; conditions: thermodynamic from solid, 25° C., based on amount of azithromycin dissolved
Method: The azithromycin L-malate monohydrate of the present invention and azithromycin dihydrate were dissolved in deionized water and in phosphoric acid buffer solution (pH 7) to saturation, respectively. The water-solubility of each of the saturated solutions was analyzed by HPLC according to the procedure described in the US Pharmacopoeia, to determine the amount of azithromycin dissolved.

[3] = Heat stability test (remaining active azithromycin by HPLC); type: physicochemical; conditions: 60° C. and 75% relative humidity; for Amount of titrated azithromycin: sealed
Method: The time-dependent stability at a high temperature of the inventive azithromycin L-malate monohydrate was measured and compared with that of the known azithromycin dihydrate.

in vivo = conditions: beagle, dog, po, 20 mg/kg
Method: (§1) Specifically, twelve Marshall beagle dogs (Beijing, average weight: 9.5±0.5 kg) were divided with two groups each consisting of six dogs. Each of divided dogs was fasted for 16 hours and then orally administered with a single 20 mg/kg dose of the inventive azithromycin L-malate monohydrate (test group) or azithromycin dihydrate (control group) contained in a gelatin capsule. After administration, blood samples were periodically collected, followed by separating plasma therefrom. The azithromycin samples extracted from the plasma was subjected to LC/MS/MS analysis to measure the amount of azithromycin therein and to calculate pharmacokinetic parameters.

[4] = Non-hygroscopicity test (moisture content, Karl-Fisher titrator); type: physicochemical
Method: The inventive azithromycin L-malate monohydrate was continuously exposed at 25 or 40° C. and 40 to 90% relative humidity for a period of over 15 days. The moisture contents of the inventive salt measured with a Karl-Fisher titrator at storage time 0, 3, 7 and 15 days are shown in Table 5 and FIG. 5.

[5] = dog, in vivo, po, 20 mg/kg
Method: as §1

[6] = Pharmacokinetic test, azithromycin concentration in blood; conditions: beagle, dog, plasma, po, 20 mg/kg
Method: as §1

[7] = 37° C.; cited from earlier work
[8] = deionized water, water, read-out: Solubility, deionized water
[9] = phosphoric acid buffer solution, aqueous buffer, phosphoric acid buffer pH 7, read-out: Solubility, buffer solution (pH 7)

2-naphthalene sulfonic acid
Salt form (hygroscopicity) [1]: Crystalline, hygroscopic

CC[C@H]1OC(=O)[C@H](C)[C@@H](O[C@H]2C[C@@](C)(OC)[C@@H](O)[C@H](C)O2)[C@H](C)[C@@H](O[C@@H]2O[C@H](C)C[C@H](N(C)C)[C@H]2O)[C@](C)(O)C[C@@H](C)CN(C)[C@H](C)[C@@H](O)[C@]1(C)O.O=C(O)CC(O)C(=O)O (racemic) [DL-malate anhydrate, Azithromycin DL-Malate Anhydrate]
Salt form (hygroscopicity) [1]: Crystalline, hygroscopic^e)
Moisture content increased to [2]: ≥ 6%

CC[C@H]1OC(=O)[C@H](C)[C@@H](O[C@H]2C[C@@](C)(OC)[C@@H](O)[C@H](C)O2)[C@H](C)[C@@H](O[C@@H]2O[C@H](C)C[C@H](N(C)C)[C@H]2O)[C@](C)(O)C[C@@H](C)CN(C)[C@H](C)[C@@H](O)[C@]1(C)O.O=C(O)C[C@H](O)C(=O)O [Azithromycin L-malate monohydrate, azithromycin L-malate monohydrate]
solubility (Water-solubility test; [8]): 393000 µg/mL
solubility (Water-solubility test; [9]): 392000 µg/mL
Heat stability (in words) ([3]; 28 days): highly stable
Amount of titrated azithromycin ([3]; 7 days): 984.6 µg/mg
Amount of titrated azithromycin ([3]; 14 days): 985.1 µg/mg
Amount of titrated azithromycin ([3]; 21 days): 987.0 µg/mg
Amount of titrated azithromycin ([3]; 28 days): 985.4 µg/mg
Amount of titrated azithromycin ([3]; initial): 986.4 µg/mg
Cmax (in vivo): 3780 ± 1380 ng/mL
Tmax (in vivo): 36 ± 12 min
AUC(0-t) (in vivo; AUC0-24): 27600 ± 6860 ng·h/mL
AUC(0-t) (in vivo; AUC0-48): 37300 ± 8830 ng·h/mL
Hygroscopicity (in words) ([4]; 25 or 40° C., 40 to 90% relative humidity, 15 days): largely non-hygroscopic
Moisture content ([4]; 40% relative humidity, 25° C., 3 days): 1.78 wt %
Moisture content ([4]; 40% relative humidity, 25° C., 7 days): 1.75 wt %
Moisture content ([4]; 40% relative humidity, 25° C., 15 days): 1.73 wt %
Moisture content ([4]; 40% relative humidity, 25° C., initial): 1.75 wt %
Moisture content ([4]; 60% relative humidity, 25° C., 3 days): 1.82 wt %
Moisture content ([4]; 60% relative humidity, 25° C., 7 days): 1.80 wt %
Moisture content ([4]; 60% relative humidity, 25° C., 15 days): 1.80 wt %
Moisture content ([4]; 60% relative humidity, 25° C., initial): 1.75 wt %
Moisture content ([4]; 75% relative humidity, 40° C., 3 days): 1.80 wt %
Moisture content ([4]; 75% relative humidity, 40° C., 7 days): 1.82 wt %
Moisture content ([4]; 75% relative humidity, 40° C., 15 days): 1.85 wt %
Moisture content ([4]; 75% relative humidity, 40° C., initial): 1.75 wt %
Moisture content ([4]; 90% relative humidity, 40° C., 3 days): 1.87 wt %
Moisture content ([4]; 90% relative humidity, 40° C., 7 days): 1.85 wt %
Moisture content ([4]; 90% relative humidity, 40° C., 15 days): 1.85 wt %
Moisture content ([4]; 90% relative humidity, 40° C., initial): 1.75 wt %
AUC0-24, T group/C group [5]: 1.34
AUC0-48, T group/C group [5]: 1.34
Cmax compared with azithromycin dihydrate (in words) [5]: about two times higher
Cmax, T group/C group [5]: 1.94
Tmax, T group/C group [5]: 0.75
Salt form (hygroscopicity) [1]: Crystalline, non-hygroscopic^c)

CC[C@H]1OC(=O)[C@H](C)[C@@H](O[C@H]2C[C@@](C)(OC)[C@@H](O)[C@H](C)O2)[C@H](C)[C@@H](O[C@@H]2O[C@H](C)C[C@H](N(C)C)[C@H]2O)[C@](C)(O)C[C@@H](C)CN(C)[C@H](C)[C@@H](O)[C@]1(C)O [Azithromycin dihydrate, 9-deoxo-9a-aza-9a-methyl-9a-homoerythromycin A, reference compound]
solubility (Water-solubility test; [8]): 100 µg/mL
solubility (Water-solubility test; [9]): 5100 µg/mL
Heat stability (in words) ([3]; 28 days): significant degradation
Amount of titrated azithromycin ([3]; 7 days): 974.6 µg/mg
Amount of titrated azithromycin ([3]; 14 days): 975.3 µg/mg
Amount of titrated azithromycin ([3]; 21 days): 973.2 µg/mg
Amount of titrated azithromycin ([3]; 28 days): 971.6 µg/mg
Amount of titrated azithromycin ([3]; initial): 976.5 µg/mg
Tmax [6]: 48 ± 18 min
Cmax (in vivo): 1950 ± 710 ng/mL
AUC(0-t) (in vivo; AUC0-24): 20600 ± 6640 ng·h/mL
AUC(0-t) (in vivo; AUC0-48): 27900 ± 9710 ng·h/mL
Water-solubility [7]: 1100 µg/mL

Br [Hydrobromic acid]
Salt form (hygroscopicity) [1]: Amorphous, hygroscopic

Cl [Hydrochloric acid]
Salt form (hygroscopicity) [1]: Amorphous, hygroscopic

O=C(O)[C@H](O)[C@@H](O)C(=O)O [L-Tartaric acid]
Salt form (hygroscopicity) [1]: Crystalline, hygroscopic

CCC1OC(=O)C(C)C(OC2CC(C)(OC)C(O)C(C)O2)C(C)C(OC2OC(C)CC(N(C)C)C2O)C(C)(O)CC(C)CN(C)C(C)C(O)C1(C)O.O=C(O)CC(O)C(=O)O [L-malate anhydrate, Azithromycin L-Malate Anhydrate]
Salt form (hygroscopicity) [1]: Crystalline, hygroscopic^d)
Increase of moisture content [2]: about 2.0%

O=S(=O)(O)O [Sulfuric acid]
Salt form (hygroscopicity) [1]: Amorphous, hygroscopic

Cc1ccc(S(=O)(=O)O)cc1 [p-toluene sulfonic acid]
Salt form (hygroscopicity) [1]: Amorphous, hygroscopic

Azithromycin D-Malate Anhydrate
Salt form (hygroscopicity) [1]: Crystalline, hygroscopic^f)
Increase of moisture content [2]: ≥ 8%

Citric acid
Salt form (hygroscopicity) [1]: Amorphous, hygroscopic

Fumaric acid
Salt form (hygroscopicity) [1]: Crystalline, hygroscopic

Maleic acid
Salt form (hygroscopicity) [1]: Amorphous, hygroscopic
